# Measurements taken from patent US9095578B2, “Adenylyl cyclases as novel targets for the treatment of infection by eukaryotic pathogens” (CORNELL RESEARCH FOUNDATION, INC., priority 2007, dated 2015).
# Experiments:
# human sAC [1] = biological target: T1, human sAC (Homo sapiens, UniProt Q96PN6); experiment: in vitro adenylyl cyclase assay with purified human sAC protein; assay type: biochemical; conditions: 100 μM of compound; calcium and bicarbonate stimulated; activation instead of inhibition
# T1 construct: made in house
# T1 sequence (Q96PN6 1-469 limits assumed): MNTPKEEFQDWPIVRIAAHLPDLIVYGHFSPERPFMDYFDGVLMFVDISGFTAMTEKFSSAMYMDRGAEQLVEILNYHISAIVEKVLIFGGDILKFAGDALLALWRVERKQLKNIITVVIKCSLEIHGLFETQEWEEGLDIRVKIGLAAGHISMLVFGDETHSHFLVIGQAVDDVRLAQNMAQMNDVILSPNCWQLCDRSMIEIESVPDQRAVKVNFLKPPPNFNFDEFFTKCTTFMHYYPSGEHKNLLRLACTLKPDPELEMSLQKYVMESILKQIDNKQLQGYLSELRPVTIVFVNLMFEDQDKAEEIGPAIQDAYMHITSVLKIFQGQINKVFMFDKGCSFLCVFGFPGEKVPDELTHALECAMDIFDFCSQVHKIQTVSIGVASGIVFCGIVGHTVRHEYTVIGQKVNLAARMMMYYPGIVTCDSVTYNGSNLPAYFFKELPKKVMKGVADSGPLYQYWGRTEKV
# Protocol: Purified human sAC protein was used in an in vitro adenylyl cyclase assay. Purification of the protein is described in detail in Litvin et al. 2003. […] This paper also describes the general conditions for a sAC cyclase assay. The specific conditions for the in vitro assay are as follows.
# An aliquot of the master mixture was added to the purified human sAC. The assay mixture also included the indicated concentration of KH compound, or an equivalent volume of vehicle (i.e., DMSO) as control. The reaction was started by adding 5 mM ATP (total assay volume=100 μL). […] Stimulated assay conditions involve adding 40 mM bicarbonate and 5 mM CaCl2 to the above master mixture.
# Cyclic AMP levels were measured in each sample using the Correlate-EIA Direct Cyclic AMP assay kit from Assay Designs as per manufacturers instructions.
# [2] = system: adenylyl cyclase activity from Trypansoma brucei cell lysates; experiment: adenylyl cyclase assay on whole cell lysate of the bloodstream form; assay type: biochemical, Trypanosoma brucei; conditions: 15 mM MgCl2, 1 mM ATP, pH 7.5, 30° C.; for effect on adenylyl cyclase activity in whole cell lysate: any concentration
# Protocol: The effect of these compounds on lysate activity was tested using whole cell lysate of the bloodstream form. Briefly, 5×10^6 cells were sonicated (on ice) in a lysis buffer consisting of 2 mM Tris-HCl, 15 mM KCl, 1 mM EDTA, 1 mM 2-mercaptoethanol, 100 μM PMSF, and 1 μg/mL aprotinin/leupeptin. Adenylyl cyclase assays were conducted using 20 μL of lysate/assay in the presence of 15 mM MgCl2 and 1 mM ATP in 50 mM Tris-HCl at pH=7.5 at 30° C. KH7.14 and KH7.15 had no effect on activity at any concentration while 100 μM KH7 stimulated AC activity in the whole cell lysate between 1.5-2 fold (see FIG. 2). The observation that KH7 prevents growth of bloodstream form cells in vitro via activation of adenylyl cyclase is consistent with the idea that the cAMP pathway controls the cell cycle.
# human sAC [3] = biological target: T1, human sAC; experiment: in vivo cAMP accumulation assay, 4-4 cells (hsACt stably transfected into 293T) + IBMX; assay type: cell-based; conditions: 4-4, Basal column
# Protocol: 293T cells or 4-4 […] stably transfected into 293T) were grown in 75 cm2 Tissue Culture Flasks until nearly confluent using DMEM (10% FBS, 1% L-Glutamine, 1% Penicillin/Streptomycin). Cells were released from the flask with 3 ml of trypsin followed by addition of 7 ml of DMEM to neutralize the trypsin. Cells were mixed by pipetting up and down with 10 ml serological pipette. To a 3 ml aliquot of the cell mixture, 6 ml of DMEM (prewarmed to 37° C.) was added followed by thorough mixing by picking up the entire 9 mls using a repeat pipettor, and slowly pipetting out against the wall of container. This was repeated this ten times to ensure the mixture in homogenous. 100 μL of cells were then added to each pre-siliconized 1.7 ml Eppindorf tubes (Costar #3207) followed by a 60 min incubation at 37° C. and 5% CO2. This incubation was performed in 20-tube, round, floating racks (VWR #60986-100), which enable a quick transfer of the samples to a water bath, and the ability to mix several samples simultaneously. Following the incubation, 1 μL of the compound in DMSO was added (or just DMSO for controls). The cells were mixed before and after adding the compound, by a brief (and light) vortexing. The compounds were added while the cells were in the 37° C. water bath, followed by a 10 min incubation at 37° C. and 5% CO2. […] The 4-4 cells receive the IBMX to a final concentration of 500 μM IBMX. […]
# [4] = system: endogenous transmembrane adenylyl cyclases; experiment: in vivo cAMP accumulation assay, 293T cells + IBMX and Forskolin; assay type: cell-based, human; conditions: 293T + FSK column
# Protocol: 293T cells or 4-4 cells (hsACt stably transfected into 293T) were grown in 75 cm2 Tissue Culture Flasks until nearly confluent using DMEM (10% FBS, 1% L-Glutamine, 1% Penicillin/Streptomycin). Cells were released from the flask with 3 ml of trypsin followed by addition of 7 ml of DMEM to neutralize the trypsin. Cells were mixed by pipetting up and down with 10 ml serological pipette. To a 3 ml aliquot of the cell mixture, 6 ml of DMEM (prewarmed to 37° C.) was added followed by thorough mixing by picking up the entire 9 mls using a repeat pipettor, and slowly pipetting out against the wall of container. This was repeated this ten times to ensure the mixture in homogenous. 100 μL of cells were then added to each pre-siliconized 1.7 ml Eppindorf tubes (Costar #3207) followed by a 60 min incubation at 37° C. and 5% CO2. This incubation was performed in 20-tube, round, floating racks (VWR #60986-100), which enable a quick transfer of the samples to a water bath, and the ability to mix several samples simultaneously. Following the incubation, 1 μL of the compound in DMSO was added (or just DMSO for controls). […] Following a 10 min incubation at room temperature, 30 μL of each sample was added to 70 μL of 0.1 N HCl and the cAMP levels were measured using the protocol for the Direct Cyclic AMP Kit (Assay Designs, Inc. # 901-066). […]
# Cryptococcus = experiment: morphological transition essential for pathogenesis, Cryptococcus; assay type: cell-based
# Candida = experiment: morphological transition essential for pathogenesis, Candida; assay type: cell-based
smiles,measurement,setting,value
Cc1ccc(Cn2c(SCC(=O)N/N=C/c3ccncc3)nc3ccccc32)cc1 [KH7.142],"Activation, printed in column % Inhibition (100 μM), stimulated human sAC",human sAC [1],Activation @ 100
O=C(CSc1nc2ccccc2[nH]1)N/N=C/c1ccccn1 [KH7.14],effect on adenylyl cyclase activity in whole cell lysate,[2],no effect
C/C(=N\NC(=O)CSc1nc2ccccc2[nH]1)c1ccccc1 [KH7.108],"remark on cellular toxicity, 4-4 cells",human sAC [3],may be cellular toxicity
same,"remark on cellular toxicity, 293T cells",[4],may be cellular toxicity
CC(Sc1nc2ccccc2[nH]1)C(=O)N/N=C/c1cc(Br)ccc1O (centres unmarked) [KH7],morphological transition essential for pathogenesis,Cryptococcus,blocked
same,stimulation of AC activity in the whole cell lysate,[2]; 100 μM,1.5-2 fold
same,morphological transition essential for pathogenesis,Candida,blocked
COc1cc(/C=N/NC(=O)CSc2nc3ccccc3[nH]2)ccc1O [KH7.15],effect on adenylyl cyclase activity in whole cell lysate,[2],no effect
